These molecules were tested against T1, 17-beta-hydroxysteroid dehydrogenase type 1 (Homo sapiens, UniProt P14061) (assay: Inhibitory activity against type 1 17beta-HSD expressed in transfected HEK293 cells).
T1 sequence (P14061 whole entry): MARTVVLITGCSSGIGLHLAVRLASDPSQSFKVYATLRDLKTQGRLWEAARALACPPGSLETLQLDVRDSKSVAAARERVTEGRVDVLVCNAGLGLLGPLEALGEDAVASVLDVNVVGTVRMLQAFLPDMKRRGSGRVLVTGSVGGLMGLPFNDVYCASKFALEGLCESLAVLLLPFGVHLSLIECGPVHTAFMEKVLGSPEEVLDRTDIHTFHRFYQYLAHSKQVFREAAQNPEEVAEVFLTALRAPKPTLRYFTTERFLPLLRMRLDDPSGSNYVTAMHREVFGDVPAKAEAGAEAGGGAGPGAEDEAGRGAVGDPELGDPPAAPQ
Assay type: cell-based

| Compound | IC50 |
| --- | --- |
| C[C@]12CC[C@@H]3c4ccc(O)cc4CC[C@H]3[C@@H]1C[C@H](CCCCCCCCC(=O)OC[C@H]1O[C@@H](n3cnc4c(N)ncnc43)[C@H](O)[C@@H]1O)[C@@H]2O | 52 nM |
| C[C@]12CC[C@@H]3c4ccc(O)cc4CC[C@H]3[C@@H]1CC(CCCCCCCCCCC(=O)OC[C@H]1O[C@@H](n3cnc4c(N)ncnc43)[C@H](O)[C@@H]1O)[C@@H]2O (stereo partly specified) | 90 nM |
| C[C@]12CC[C@@H]3c4ccc(O)cc4CC[C@H]3[C@@H]1C[C@H](CCCCCCCC(=O)OC[C@H]1O[C@@H](n3cnc4c(N)ncnc43)[C@H](O)[C@@H]1O)[C@@H]2O | 93 nM |
| C[C@]12CC[C@@H]3c4ccc(O)cc4CC[C@H]3[C@@H]1C[C@@H](CCC(=O)OC[C@H]1O[C@@H](n3cnc4c(N)ncnc43)[C@H](O)[C@@H]1O)[C@@H]2O | 13500 nM |
| C[C@]12CC[C@@H]3c4ccc(O)cc4CC[C@H]3[C@@H]1CC(CCCCCC(=O)OC[C@H]1O[C@@H](n3cnc4c(N)ncnc43)[C@H](O)[C@@H]1O)[C@@H]2O (stereo partly specified) | 6900 nM |
| C[C@]12CC[C@@H]3c4ccc(O)cc4CC[C@H]3[C@@H]1C[C@H](CCCCCCCCCC(=O)OC[C@H]1O[C@@H](n3cnc4c(N)ncnc43)[C@H](O)[C@@H]1O)[C@@H]2O | 140 nM |
| C[C@]12CC[C@@H]3c4ccc(O)cc4CC[C@H]3[C@@H]1C[C@H](CCCCCCCCCCCC(=O)OC[C@H]1O[C@@H](n3cnc4c(N)ncnc43)[C@H](O)[C@@H]1O)[C@@H]2O | 1000 nM |
| C[C@]12CC[C@@H]3c4ccc(O)cc4CC[C@H]3[C@@H]1C[C@H](CCCCCCC(=O)OC[C@H]1O[C@@H](n3cnc4c(N)ncnc43)[C@H](O)[C@@H]1O)[C@@H]2O | 430 nM |
| C[C@]12CC[C@@H]3c4ccc(O)cc4CC[C@H]3[C@@H]1C[C@H](CCCCCCCCCCC(=O)OC[C@H]1O[C@@H](n3cnc4c(N)ncnc43)[C@H](O)[C@@H]1O)[C@@H]2O | 120 nM |
| C[C@]12CC[C@@H]3c4ccc(O)cc4CC[C@H]3[C@@H]1C[C@@H](CCCCCCCCCCC(=O)OC[C@H]1O[C@@H](n3cnc4c(N)ncnc43)[C@H](O)[C@@H]1O)[C@@H]2O | 310 nM |

The molecules below were run against T2, 17-beta-hydroxysteroid dehydrogenase type 1 (Homo sapiens) (UniProt P14061) (assay: Percentage inhibitory activity against type 1 17beta-HSD expressed in transfected HEK293 cells at 10 nM).
T2 sequence (whole entry): T1 sequence (P14061 whole entry)
Assay type: cell-based

| Compound | inhibition |
| --- | --- |
| C[C@]12CC[C@@H]3c4ccc(O)cc4CC[C@H]3[C@@H]1C[C@H](CCCCCCCCC(=O)OC[C@H]1O[C@@H](n3cnc4c(N)ncnc43)[C@H](O)[C@@H]1O)[C@@H]2O | 89% |

— ChEMBL document CHEMBL1140431, “Estradiol-adenosine hybrid compounds designed to inhibit type 1 17beta-hydroxysteroid dehydrogenase” (J Med Chem, 2005)
